Tests used:
Norwalk virus replicon = assay: Susceptibility of HGT-NV replicon cells passaged in parallel in DMSO (qRT-PCR); format: cell-based, Human norovirus (HuNoV) GI
Procedure: Given the potent effects of rupintrivir on HGT-NV cells, we sought to determine whether rupintrivir-resistant replicons could be generated. To this end, HGT-NV cells were treated with 5 μM rupintrivir for 12 days in the absence of G418 selection, followed by subsequent passages in the presence of G418 with increasing concentrations of rupintrivir for up to 45 days (Fig. 1D). This approach yielded three lineages of replicon cells which were resistant to 10, 15, and 20 μM rupintrivir. To identify the mutations conferring the resistance to rupintrivir, we isolated cell clones by limiting dilution using replicon cells surviving after 45 days of culture and then evaluated the rupintrivir sensitivity of the replicon cells. […] All clones treated with 10 μM rupintrivir had the I109V single amino acid substitution, while the A105V/I109V double amino acid substitution was observed only in clones treated with 15 and 20 μM rupintrivir. […]
The inhibitory effect of rupintrivir on HuNoV replication was assessed by quantification of the levels of GI NuNoV RNA and β-actin RNA as the reference gene. […] The real-time quantitative reverse transcription-PCR (qRT-PCR) assay was performed by using a One-Step Plus qRT-PCR kit according to the protocol of the manufacturer (Primer Design). […] Relative quantification was performed using the 2^−ΔΔCT threshold cycle (CT) method ([38]). […]

[1] = target: T1, MNV WT protease (polyprotein) (Norovirus, UniProt Q80J95); assay: In vitro translation, MNV polyprotein processing, WT protease; format: biochemical, murine norovirus; details: 80 μM, rabbit reticulocyte lysate
T1 construct: in vitro-transcribed MNV full-length capped RNA containing either the WT or mutant proteases; made in house; host or cells: rabbit reticulocyte lysate (Flexi system, Promega), in vitro translation
Procedure: FIG 4 Impact of rupintrivir resistance-conferring mutations on MNV polyprotein processing in vitro. In vitro translation reactions were programmed with equal quantities of in vitro-transcribed MNV full-length capped RNA containing either the WT or mutant proteases in the presence and absence of 80 μM rupintrivir. The [^35S]methionine-labeled products were subsequently analyzed by SDS-PAGE and phosphorimaging analysis. The percentage of fully processed NS3, determined on the basis of the expected molecular mass of the proteins, was calculated and expressed relative to the total amount of viral protein produced.
In vitro translation reactions were performed using a Flexi rabbit reticulocyte lysate system (Promega). The reaction mixtures were prepared according to the manufacturer's instructions as described for capped mRNAs and programmed with 1 μg of RNA per 25-μl reaction mixture. The reaction mixtures were incubated at 30°C for 90 min prior to the addition of an equal volume of SDS-PAGE sample buffer. Samples were subsequently resolved on a 12.5% SDS-polyacrylamide gel before exposure to a phosphorimager screen.

GV A105V protease = target: T2, GV A105V protease (Norovirus, UniProt Q80J95, A1099V); assay: Cell-based FRET assay, GV A105V protease; parameters: species or system murine norovirus (MNV) GV (DQ285629); details: GV A105V vs GV WT
T2 construct: plasmids expressing norovirus protease from GI.1 (M87661), GII.4 (DQ658413), or GV (DQ285629) norovirus; expressed in transfected cells; host or cells: HEK293T
T2 sequence (Q80J95 995-1177 A1099V): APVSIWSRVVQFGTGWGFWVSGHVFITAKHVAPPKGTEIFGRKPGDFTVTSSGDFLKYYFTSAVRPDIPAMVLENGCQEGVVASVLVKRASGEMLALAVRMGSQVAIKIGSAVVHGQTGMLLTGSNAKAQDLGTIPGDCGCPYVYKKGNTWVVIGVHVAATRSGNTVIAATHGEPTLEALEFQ
Description: The generation of plasmids expressing norovirus protease from GI.1 (M87661), GII.4 (DQ658413), or GV (DQ285629) norovirus and FRET assay constructs has been described previously ([18]). The plasmids carrying GI, GII, and GV proteases with the A105V, I109V, or A105V/I109V mutation were generated from the wild-type (WT) protease constructs described above by the QuikChange site-directed mutagenesis method. Mutant MNV genomes for reverse genetics were generated by two-step PCR mutagenesis of the WT MNV genome (pT7 MNV 3RZ) construct as described previously ([27]). The primers used for generation of the plasmids are listed in Tables S1 and S2 in the supplemental material.
The YFP/CFP ratio was used to determine FRET efficiency, as described previously ([18], [40]). Briefly, HEK293T cells were plated into black 96-well cell culture microplates (Greiner Bio-One) at a density of 5 × 10^4 cells/well in 100 μl of DMEM containing 10% fetal bovine serum with or without various concentrations of rupintrivir and then incubated for 4 h in a CO2 incubator at 37°C. […] The plates were then analyzed on a SpectraMax i3 instrument in fluorescence mode, with excitation set at 434 nm and the reading emissions set at 477 nm (CFP) and 527 nm (YFP). The background fluorescence from wells transfected with pcDNA3.1 was determined and subtracted. […]

`CCOC(=O)/C=C/[C@H](C[C@@H]1CCNC1=O)NC(=O)[C@@H](CC(=O)[C@@H](NC(=O)c1cc(C)on1)C(C)C)Cc1ccc(F)cc1` [rupintrivir, Rupintrivir] was tested. Which “Fold change in sensitivity” value (Norwalk virus replicon; DMSO-passaged cells, relative to DMSO) did it give?
The value was 1.0.

What about the EC50 (Norwalk virus replicon; Norwalk virus, read-out: Mean EC50 ± SD) of the same compound?
Its EC50 is 1300 ± 200 nM.

And the “polyprotein processing (mature NS3)” value [1]?
The value was “prevented the cleavage of the polyprotein”.

And the “impact of substitution on susceptibility” value (GV A105V protease)?
Its value is “no appreciable impact”.

Source: paper PMC5923142, “Selection and Characterization of Rupintrivir-Resistant Norwalk Virus Replicon Cells In Vitro” (Antimicrobial Agents and Chemotherapy, 2018)
